Measured values from ChEMBL document CHEMBL1201861, “Genomics of Drug Sensitity in Cancer screening data, Wellcome Trust Sanger Institute”.

Assays:
Test in all cases: cells
Details in all cases: Homo sapiens
DSH1 = type: functional, cell-based;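 note: growth inhibition of human DSH1 cells, measured with a cell viability readout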
Description: SANGER: Inhibition of human DSH1 cell growth in a cell viability assay.

LXF-289 cell line = type: functional, cell-based
Description: SANGER: Inhibition of human LXF-289 cell growth in a cell viability assay.

COLO-829 = type: functional, cell-based
Description: SANGER: Inhibition of human COLO-829 cell growth in a cell viability assay.

EC-GI-10 = type: functional, cell-based
Description: SANGER: Inhibition of human EC-GI-10 cell growth in a cell viability assay.

D-263MG = type: functional, cell-based
Description: SANGER: Inhibition of human D-263MG cell growth in a cell viability assay.

LAN-6 = type: functional, cell-based;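 note: growth inhibition of LAN-6 cells, determined with a cell viability assay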
Description: SANGER: Inhibition of human LAN-6 cell growth in a cell viability assay.

EM-2 = type: functional, cell-based;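 note: growth inhibition of EM-2 cells, read out with a cell viability assay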
Description: SANGER: Inhibition of human EM-2 cell growth in a cell viability assay.

NCI-H747 = type: functional, cell-based;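 note: growth inhibition of human NCI-H747 cells, read out by a cell viability assay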
Description: SANGER: Inhibition of human NCI-H747 cell growth in a cell viability assay.

PSN1 = type: functional, cell-based;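 note: suppression of growth of human PSN1 cells, read out by a cell viability assay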
Description: SANGER: Inhibition of human PSN1 cell growth in a cell viability assay.

DU-4475 = type: functional, cell-based
Description: SANGER: Inhibition of human DU-4475 cell growth in a cell viability assay.

NCI-H2126 = type: functional, cell-based;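 note: growth inhibition of the cancer cell line, determined with a cell viability readout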
Description: SANGER: Inhibition of human NCI-H2126 cell growth in a cell viability assay.

RS4-11 = type: functional, cell-based;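 note: growth inhibition of RS4-11 cells, read out by a cell viability assay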
Description: SANGER: Inhibition of human RS4-11 cell growth in a cell viability assay.

NCI-H1299 = type: functional, cell-based;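 note: growth inhibition of human NCI-H1299 cells, read out by a cell viability assay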
Description: SANGER: Inhibition of human NCI-H1299 cell growth in a cell viability assay.

SW 962 = type: functional, cell-based;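 note: growth inhibition of human SW962 cells, read out by a cell viability assay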
Description: SANGER: Inhibition of human SW962 cell growth in a cell viability assay.

LAMA-84 = type: functional, cell-based;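 note: growth inhibition of LAMA-84 cells, read out with a cell viability assay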
Description: SANGER: Inhibition of human LAMA-84 cell growth in a cell viability assay.

MC116 = type: functional, cell-based;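 note: growth inhibition of MC116 cells, read out with a cell viability assay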
Description: SANGER: Inhibition of human MC116 cell growth in a cell viability assay.

HCE-T = type: functional, cell-based;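 note: cell viability assay read-out, reporting inhibition of HCE-T cell growth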
Description: SANGER: Inhibition of human HCE-T cell growth in a cell viability assay.

C2BBe1 = type: functional, cell-based;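 note: growth inhibition of C2BBe1 cells, read out through a viability assay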
Description: SANGER: Inhibition of human C2BBe1 cell growth in a cell viability assay.

L-428 = type: functional, cell-based
Description: SANGER: Inhibition of human L-428 cell growth in a cell viability assay.

NOMO-1 = type: functional, cell-based;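 note: growth inhibition of human NOMO-1 cells measured by a cell viability assay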
Description: SANGER: Inhibition of human NOMO-1 cell growth in a cell viability assay.

LU-134-A = type: functional, cell-based
Description: SANGER: Inhibition of human LU-134-A cell growth in a cell viability assay.

MV4-11 = type: functional, cell-based, MV-4-11;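 note: cell viability readout measuring growth inhibition of human MV-4-11 cells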
Description: SANGER: Inhibition of human MV-4-11 cell growth in a cell viability assay.

L-363 = type: functional, cell-based
Description: SANGER: Inhibition of human L-363 cell growth in a cell viability assay.

LS-411N = type: functional, cell-based
MZ2-MEL = type: functional, cell-based;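 note: growth inhibition of MZ2-MEL cells read out with a cell viability assay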
Description: SANGER: Inhibition of human MZ2-MEL cell growth in a cell viability assay.

EW-16 = type: functional, cell-based;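 note: growth inhibition of human EW-16 cells, read out as cell viability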
Description: SANGER: Inhibition of human EW-16 cell growth in a cell viability assay.

ES7 = type: functional, cell-based;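 note: growth inhibition of cultured human ES7 cells, read out as cell viability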
Description: SANGER: Inhibition of human ES7 cell growth in a cell viability assay.

BB49-HNC = type: functional, cell-based;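 note: cell viability assay read-out, reported as inhibition of BB49-HNC cell growth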
Description: SANGER: Inhibition of human BB49-HNC cell growth in a cell viability assay.

KE-37 = type: functional, cell-based;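 note: growth inhibition of KE-37 cells, read out with a cell viability assay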
Description: SANGER: Inhibition of human KE-37 cell growth in a cell viability assay.

NCI-H526 = type: functional, cell-based;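 note: growth inhibition of the human NCI-H526 cell line, measured by a cell viability assay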
Description: SANGER: Inhibition of human NCI-H526 cell growth in a cell viability assay.

NMC-G1 = type: functional, cell-based;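 note: growth inhibition of the NMC-G1 cell line, measured with a cell viability read-out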
Description: SANGER: Inhibition of human NMC-G1 cell growth in a cell viability assay.

EW-11 = type: functional, cell-based;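 note: growth inhibition of human EW-11 cells, measured with a cell viability assay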
Description: SANGER: Inhibition of human EW-11 cell growth in a cell viability assay.

MLMA = type: functional, cell-based;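 note: growth inhibition of MLMA cells (human), determined through a cell viability readout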
Description: SANGER: Inhibition of human MLMA cell growth in a cell viability assay.

MHH-NB-11 = type: functional, cell-based;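 note: growth inhibition of human MHH-NB-11 cells, read out by a cell viability assay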
Description: SANGER: Inhibition of human MHH-NB-11 cell growth in a cell viability assay.

CTB-1 = type: functional, cell-based
Description: SANGER: Inhibition of human CTB-1 cell growth in a cell viability assay.

LS-1034 = type: functional, cell-based
Description: SANGER: Inhibition of human LS-1034 cell growth in a cell viability assay.

SH-4 = type: functional, cell-based;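 note: growth inhibition of SH-4 cells, read out with a cell viability assay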
Description: SANGER: Inhibition of human SH-4 cell growth in a cell viability assay.

COLO-320-HSR = type: functional, cell-based;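 note: growth inhibition of COLO-320-HSR cells, determined with a cell viability assay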
Description: SANGER: Inhibition of human COLO-320-HSR cell growth in a cell viability assay.

no-10 = type: functional, cell-based;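 note: growth inhibition of no-10 cells, read out with a cell viability assay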
Description: SANGER: Inhibition of human no-10 cell growth in a cell viability assay.

SF-268 = type: functional, cell-based;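 note: growth inhibition of SF-268 cells determined with a cell viability assay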
Description: SANGER: Inhibition of human SF268 cell growth in a cell viability assay.

IST-MES1 = type: functional, cell-based;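 note: growth inhibition of IST-MES1 cells, measured with a cell viability assay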
Description: SANGER: Inhibition of human IST-MES1 cell growth in a cell viability assay.

J-RT3-T3-5 = type: functional, cell-based;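 note: cell viability assay measuring growth inhibition of human J-RT3-T3-5 cells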
Description: SANGER: Inhibition of human J-RT3-T3-5 cell growth in a cell viability assay.

LB373-MEL-D = type: functional, cell-based;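 note: growth inhibition of the cell line, read out in a cell viability assay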
Description: SANGER: Inhibition of human LB373-MEL-D cell growth in a cell viability assay.

HL-60 = type: functional, cell-based;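 note: growth inhibition of human HL-60 cells, read out with a cell viability assay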
Description: SANGER: Inhibition of human HL-60 cell growth in a cell viability assay.

HC-1 = type: functional, cell-based;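 note: growth inhibition of HC-1 cells measured by a cell viability assay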
Description: SANGER: Inhibition of human HC-1 cell growth in a cell viability assay.

NKM-1 = type: functional, cell-based;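 note: growth inhibition of NKM-1 cells, read out with a cell viability assay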
Description: SANGER: Inhibition of human NKM-1 cell growth in a cell viability assay.

MFH-ino = type: functional, cell-based;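 note: growth inhibition of human MFH-ino cells, read out by a cell viability assay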
Description: SANGER: Inhibition of human MFH-ino cell growth in a cell viability assay.

VA-ES-BJ = type: functional, cell-based;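 note: growth inhibition of the VA-ES-BJ cell line, read out by a cell viability assay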
Description: SANGER: Inhibition of human VA-ES-BJ cell growth in a cell viability assay.

DOHH-2 = type: functional, cell-based;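 note: growth inhibition of human DOHH-2 cells, read out with a cell viability assay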
Description: SANGER: Inhibition of human DOHH-2 cell growth in a cell viability assay.

ONS-76 = type: functional, cell-based;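 note: growth inhibition of human ONS-76 cells, read out with a cell viability assay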
Description: SANGER: Inhibition of human ONS-76 cell growth in a cell viability assay.

NCI-H1355 = type: functional, cell-based;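 note: growth inhibition of human NCI-H1355 cells, read out by a cell viability assay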
Description: SANGER: Inhibition of human NCI-H1355 cell growth in a cell viability assay.

KS-1 = type: functional, cell-based;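 note: growth inhibition of KS-1 cells, read out with a cell viability assay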
Description: SANGER: Inhibition of human KS-1 cell growth in a cell viability assay.

TE-5 = type: functional, cell-based;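 note: inhibition of cell growth, read out by a cell viability assay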
Description: SANGER: Inhibition of human TE-5 cell growth in a cell viability assay.

ETK-1 = type: functional, cell-based;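 note: growth inhibition of human ETK-1 cells, read out with a cell viability assay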
Description: SANGER: Inhibition of human ETK-1 cell growth in a cell viability assay.

K562 = type: functional, cell-based
Description: SANGER: Inhibition of human K-562 cell growth in a cell viability assay.

MOLT-4 = type: functional, cell-based;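 note: growth inhibition of MOLT-4 cells, determined with a cell viability readout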
Description: SANGER: Inhibition of human MOLT-4 cell growth in a cell viability assay.

GT3TKB = type: functional, cell-based;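 note: growth inhibition of the cell line, read out with a cell viability assay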
Description: SANGER: Inhibition of human GT3TKB cell growth in a cell viability assay.

NCI-H720 = type: functional, cell-based;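 note: growth inhibition of human NCI-H720 cells determined by a cell viability assay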
Description: SANGER: Inhibition of human NCI-H720 cell growth in a cell viability assay.

NCI-H82 = type: functional, cell-based;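 note: growth inhibition of NCI-H82 cells, measured with a cell viability readout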
Description: SANGER: Inhibition of human NCI-H82 cell growth in a cell viability assay.

OVCAR-4 = type: functional, cell-based;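 note: growth inhibition of human OVCAR-4 cells, measured with a cell viability assay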
Description: SANGER: Inhibition of human OVCAR-4 cell growth in a cell viability assay.

BT-474 = type: functional, cell-based
Description: SANGER: Inhibition of human BT-474 cell growth in a cell viability assay.

GR-ST = type: functional, cell-based
Description: SANGER: Inhibition of human GR-ST cell growth in a cell viability assay.

SF-126 = type: functional, cell-based;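 note: growth inhibition of human SF126 cells, read out with a cell viability assay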
Description: SANGER: Inhibition of human SF126 cell growth in a cell viability assay.

HT = type: functional, cell-based
Description: SANGER: Inhibition of human HT cell growth in a cell viability assay.

ML-2 = type: functional, cell-based
Description: SANGER: Inhibition of human ML-2 cell growth in a cell viability assay.

HD-MY-Z = type: functional, cell-based
Description: SANGER: Inhibition of human HD-MY-Z cell growth in a cell viability assay.

Measured: IC50

Cn1cc(/C=C2\C(=O)Nc3cccnc32)c2ccccc21
> 2 µM: DSH1 | LXF-289 cell line | COLO-829 | EC-GI-10 | D-263MG | LAN-6 | EM-2 | NCI-H747 | PSN1 | DU-4475 | NCI-H2126 | RS4-11 | NCI-H1299 | SW 962 | LAMA-84 | MC116 | HCE-T | C2BBe1 | L-428 | NOMO-1 | LU-134-A | L-363 | LS-411N | MZ2-MEL | EW-16 | ES7 | BB49-HNC | KE-37 | NCI-H526 | NMC-G1 | EW-11 | MLMA | MHH-NB-11 | CTB-1 | LS-1034 | SH-4 | COLO-320-HSR | no-10 | SF-268 | IST-MES1 | J-RT3-T3-5 | LB373-MEL-D | HL-60 | HC-1 | NKM-1 | MFH-ino | VA-ES-BJ | DOHH-2 | ONS-76 | NCI-H1355 | KS-1 | TE-5 | ETK-1 | K562 | MOLT-4 | GT3TKB | NCI-H720 | NCI-H82 | OVCAR-4 | BT-474 | GR-ST | SF-126 | HT | ML-2 | HD-MY-Z
0.295 µM: MV4-11

N#C/C(=C1/Nc2ccccc2S1)c1ccnc(NCCc2cccnc2)n1
5.01 µM: EW-16
1.39 µM: BB49-HNC
6.03 µM: NCI-H747 | KS-1
3.93 µM: RS4-11
3.03 µM: ES7
2.31 µM: NKM-1
> 8 µM: DSH1 | LXF-289 cell line | COLO-829 | EC-GI-10 | D-263MG | LAN-6 | EM-2 | PSN1 | DU-4475 | NCI-H2126 | SW 962 | LAMA-84 | C2BBe1 | L-428 | NOMO-1 | LU-134-A | L-363 | LS-411N | MZ2-MEL | KE-37 | NCI-H526 | EW-11 | MLMA | MHH-NB-11 | CTB-1 | LS-1034 | SH-4 | COLO-320-HSR | no-10 | SF-268 | IST-MES1 | J-RT3-T3-5 | LB373-MEL-D | HL-60 | HC-1 | MFH-ino | VA-ES-BJ | DOHH-2 | ONS-76 | TE-5 | ETK-1 | K562 | MOLT-4 | GT3TKB | NCI-H720 | NCI-H82 | BT-474 | GR-ST | SF-126 | HT | ML-2 | HD-MY-Z
5.7 µM: OVCAR-4
1.43 µM: MV4-11
6.12 µM: NMC-G1
1.11 µM: NCI-H1355
4.78 µM: NCI-H1299
3.17 µM: MC116
7.35 µM: HCE-T
